Test results published in PMC9854539, “QSAR Studies, Molecular Docking, Molecular Dynamics, Synthesis, and Biological Evaluation of Novel Quinolinone-Based Thiosemicarbazones against Mycobacterium tuberculosis” (Antibiotics, 2022).
In brackets after ≈: the same amount, converted by molar mass. Several values for one entry are separate records, joined by “and”; a condition that tells them apart may be missing. Equal values may be shown once.

Columns and labels:
[1] = test system: M. tuberculosis ATCC 35822; assay: Spot culture growth inhibition assay (SPOTi), MIC; assay type: cell-based, Mycobacterium tuberculosis; conditions: IC50 Vero / MIC M. tuberculosis ATCC 35822 RI
M. tuberculosis Haarlem = assay: Spot culture growth inhibition assay (SPOTi), MIC; assay type: cell-based, Mycobacterium tuberculosis; conditions: IC50 Vero / MIC M. tuberculosis Haarlem
M. tuberculosis H37Rv = assay: Spot culture growth inhibition assay (SPOTi), MIC; assay type: cell-based, Mycobacterium tuberculosis; conditions: for Selectivity Index (SI) (SI = IC50/MIC) b: IC50 Vero / MIC M. tuberculosis H37Rv; for MIC: Mycobacterium tuberculosis, H37RV, SPOTi, 2–3 weeks at 37 °C
M. tuberculosis Beijing = assay: Spot culture growth inhibition assay (SPOTi), MIC; assay type: cell-based, Mycobacterium tuberculosis; conditions: for Selectivity Index (SI) (SI = IC50/MIC) d: IC50 Vero / MIC M. tuberculosis Beijing
MTT cytotoxicity assay = conditions: African green monkey
M. bovis BCG = assay: microbe, parasite or virus in culture; assay type: cell-based; conditions: for Selectivity Index (SI) (SI = IC50/MIC) a: IC50 Vero / MIC M. bovis BCG; for MIC: Mycobacterium tuberculosis variant bovis BCG, BCG, read-out: MIC M. bovis BCG
M. tuberculosis LAM 9 = assay: Spot culture growth inhibition assay (SPOTi), MIC; assay type: cell-based, Mycobacterium tuberculosis; conditions: IC50 Vero / MIC M. tuberculosis LAM 9 (sit 42)
[2] = test system: M. tuberculosis ATCC 35838; assay: Spot culture growth inhibition assay (SPOTi), MIC; assay type: cell-based, Mycobacterium tuberculosis; conditions: IC50 Vero / MIC M. tuberculosis ATCC 35838 RR
M. tuberculosis Orphan = assay: Spot culture growth inhibition assay (SPOTi), MIC; assay type: cell-based, Mycobacterium tuberculosis; conditions: IC50 Vero / MIC M. tuberculosis orphan
[3] = test system: M. tuberculosis H37RV strain; design: method as in earlier work; conditions: cited from earlier work; for MIC: observed activity of QSAR data set; for MIC exp (log (1/molarMIC)): pMIC from literature MIC in mol/L

SMILES: CC(/C=C/c1cc2cc(C)ccc2[nH]c1=O)=N\NC(N)=S [Compound 11b, (E)-2-((E)-4-(6-Methyl-2-oxo-1,2-dihydroquinolin-3-yl)but-3-en-2-ylidene)hydrazine-1-carbothioamide]
- Selectivity Index (SI) (SI = IC50/MIC) h [1]: 1.06
- Selectivity Index (SI) (SI = IC50/MIC) f (M. tuberculosis Haarlem): 1.06
- Selectivity Index (SI) (SI = IC50/MIC) b (M. tuberculosis H37Rv): 22.06
- MIC (M. tuberculosis H37Rv): 0.16 µM (≈ 0.0481 µg/mL)
- Selectivity Index (SI) (SI = IC50/MIC) d (M. tuberculosis Beijing): 2.13
- IC50 at 48 h (MTT cytotoxicity assay): 3.53 µM
- Selectivity Index (SI) (SI = IC50/MIC) a (M. bovis BCG): 22.06
- MIC (M. bovis BCG): 0.16 µM (≈ 0.0481 µg/mL)
- Selectivity Index (SI) (SI = IC50/MIC) e (M. tuberculosis LAM 9): 0.21
- Selectivity Index (SI) (SI = IC50/MIC) g [2]: 1.06
- Selectivity Index (SI) (SI = IC50/MIC) c (M. tuberculosis Orphan): 0.11

SMILES: CC(/C=C/c1cc2cccc(C)c2[nH]c1=O)=N\NC(N)=S [Compound 11c, (E)-2-((E)-4-(8-Methyl-2-oxo-1,2-dihydroquinolin-3-yl)but-3-en-2-ylidene)hydrazine-1-carbothioamide]
- Selectivity Index (SI) (SI = IC50/MIC) h [1]: 5.76
- Selectivity Index (SI) (SI = IC50/MIC) f (M. tuberculosis Haarlem): 0.06
- Selectivity Index (SI) (SI = IC50/MIC) b (M. tuberculosis H37Rv): 11.88
- MIC (M. tuberculosis H37Rv): 0.16 µM (≈ 0.0481 µg/mL)
- Selectivity Index (SI) (SI = IC50/MIC) d (M. tuberculosis Beijing): 5.76
- IC50 at 48 h (MTT cytotoxicity assay): 1.9 µM
- Selectivity Index (SI) (SI = IC50/MIC) a (M. bovis BCG): 5.75
- MIC (M. bovis BCG): 0.33 µM (≈ 0.0991 µg/mL)
- Selectivity Index (SI) (SI = IC50/MIC) e (M. tuberculosis LAM 9): 0.58
- melting point: 241 °C
- Selectivity Index (SI) (SI = IC50/MIC) g [2]: 1.14
- Selectivity Index (SI) (SI = IC50/MIC) c (M. tuberculosis Orphan): 0.03

SMILES: CC(/C=C/c1cc2ccc(Cl)cc2[nH]c1=O)=N\NC(N)=S [Compound 11d, (E)-2-((E)-4-(7-Chloro-2-oxo-1,2-dihydroquinolin-3-yl)but-3-en-2-ylidene)hydrazine-1-carbothioamide]
- Selectivity Index (SI) (SI = IC50/MIC) h [1]: 0.26
- Selectivity Index (SI) (SI = IC50/MIC) f (M. tuberculosis Haarlem): 1.06
- Selectivity Index (SI) (SI = IC50/MIC) b (M. tuberculosis H37Rv): 11.00
- MIC (M. tuberculosis H37Rv): 0.15 µM (≈ 0.0481 µg/mL)
- Selectivity Index (SI) (SI = IC50/MIC) d (M. tuberculosis Beijing): 5.00
- IC50 at 48 h (MTT cytotoxicity assay): 1.65 µM
- Selectivity Index (SI) (SI = IC50/MIC) a (M. bovis BCG): 55.00
- MIC (M. bovis BCG): 0.03 µM (≈ 0.00962 µg/mL)
- Selectivity Index (SI) (SI = IC50/MIC) e (M. tuberculosis LAM 9): 0.53
- melting point: 246 °C
- Selectivity Index (SI) (SI = IC50/MIC) g [2]: 0.50
- Selectivity Index (SI) (SI = IC50/MIC) c (M. tuberculosis Orphan): 0.26

SMILES: CC(/C=C/c1cc2cc(Br)ccc2[nH]c1=O)=N\NC(N)=S [Compound 11e, (E)-2-((E)-4-(6-Bromo-2-oxo-1,2-dihydroquinolin-3-yl)but-3-en-2-ylidene)hydrazine-1-carbothioamide]
- Selectivity Index (SI) (SI = IC50/MIC) h [1]: 1.61
- Selectivity Index (SI) (SI = IC50/MIC) f (M. tuberculosis Haarlem): 0.08
- Selectivity Index (SI) (SI = IC50/MIC) b (M. tuberculosis H37Rv): 16.92
- MIC (M. tuberculosis H37Rv): 0.13 µM (≈ 0.0475 µg/mL)
- Selectivity Index (SI) (SI = IC50/MIC) d (M. tuberculosis Beijing): 8.15
- potency relative to Oxafloxacin (M. tuberculosis Beijing; M. tuberculosis Beijing): tenfold more potent than Oxafloxacin
- IC50 at 48 h (MTT cytotoxicity assay): 2.2 µM
- Selectivity Index (SI) (SI = IC50/MIC) a (M. bovis BCG): 16.92
- MIC (M. bovis BCG): 0.13 µM (≈ 0.0475 µg/mL)
- Selectivity Index (SI) (SI = IC50/MIC) e (M. tuberculosis LAM 9): 0.80
- melting point: 253 °C
- Selectivity Index (SI) (SI = IC50/MIC) g [2]: 0.81
- Selectivity Index (SI) (SI = IC50/MIC) c (M. tuberculosis Orphan): 0.08

SMILES: O=C(NCCNc1ccnc2cc(Cl)ccc12)Nc1ccc(Cl)cc1 [Compound 18]
- MIC [3]: 10.65 µM (≈ 4 µg/mL)
- MIC exp (log (1/molarMIC)) [3]: 4.97

SMILES: O=[N+]([O-])c1ccc(N2CCN(c3ccnc4cc(Cl)ccc34)CC2)c2nonc12 [Compound 19]
- MIC [3]: 7.26 µM (≈ 2.98 µg/mL)
- MIC exp (log (1/molarMIC)) [3]: 5.13

SMILES: O=C(NNc1ccnc2cc(Cl)ccc12)c1ccccc1N=Cc1ccc(F)cc1 [Compound 20]
- MIC [3]: 6.25 µM (≈ 2.62 µg/mL)
- MIC exp (log (1/molarMIC)) [3]: 5.2

SMILES: O=C(NNc1ccnc2cc(Cl)ccc12)c1ccccc1N=Cc1ccc(Br)cc1 [Compound 21]
- MIC [3]: 6.25 µM (≈ 3 µg/mL)
- MIC exp (log (1/molarMIC)) [3]: 5.2

SMILES: O=C(NNc1ccnc2cc(Cl)ccc12)c1ccccc1N=Cc1ccc(Cl)cc1Cl [Compound 22]
- MIC [3]: 6.25 µM (≈ 2.94 µg/mL)
- MIC exp (log (1/molarMIC)) [3]: 5.20

SMILES: COc1ccc(C=Nc2ccccc2C(=O)NNc2ccnc3cc(Cl)ccc23)cc1OC [Compound 23]
- MIC [3]: 6.25 µM (≈ 2.88 µg/mL)
- MIC exp (log (1/molarMIC)) [3]: 5.20

SMILES: COc1cc(C=Nc2ccccc2C(=O)NNc2ccnc3cc(Cl)ccc23)cc(OC)c1OC [Compound 24]
- MIC [3]: 6.25 µM (≈ 3.07 µg/mL)
- MIC exp (log (1/molarMIC)) [3]: 5.20

SMILES: O=C(NNc1ccnc2cc(Cl)ccc12)c1ccccc1N=Cc1ccc(-c2cccs2)cc1 [Compound 25]
- MIC [3]: 6.25 µM (≈ 3.02 µg/mL)
- MIC exp (log (1/molarMIC)) [3]: 5.20

SMILES: O=C(NNc1ccnc2cc(Cl)ccc12)c1ccccc1N=CC=Cc1ccccc1 [Compound 26]
- MIC [3]: 3.12 µM (≈ 1.33 µg/mL)
- MIC exp (log (1/molarMIC)) [3]: 5.51

SMILES: Cc1nc2ccccc2c(-c2ccccc2)c1C(=O)c1ccccc1 [Compound 27]
- MIC [3]: 19.33 µM (≈ 6.25 µg/mL)
- MIC exp (log (1/molarMIC)) [3]: 4.71

SMILES: CC(=O)c1c(C)nc2ccc(Cl)cc2c1-c1ccccc1 [Compound 28]
- MIC [3]: 10.57 µM (≈ 3.13 µg/mL)
- MIC exp (log (1/molarMIC)) [3]: 4.98

SMILES: c1ccc(-c2c3c(nc4ccccc24)CCCCC3)cc1 [Compound 29]
- MIC [3]: 45.73 µM (≈ 12.5 µg/mL)
- MIC exp (log (1/molarMIC)) [3]: 4.34

SMILES: CC1CC(=O)c2c(nc3ccccc3c2-c2ccccc2)C1 (centres unmarked) [Compound 30]
- MIC [3]: 21.75 µM (≈ 6.25 µg/mL)
- MIC exp (log (1/molarMIC)) [3]: 4.66

SMILES: CC1(C)CC(=O)c2c(nc3ccccc3c2-c2ccccc2)C1 [Compound 31]
- MIC [3]: 20.74 µM (≈ 6.25 µg/mL)
- MIC exp (log (1/molarMIC)) [3]: 4.68

SMILES: O=C1CC(c2ccccc2)Cc2nc3ccccc3c(-c3ccccc3)c21 (centres unmarked) [Compound 32]
- MIC [3]: 35.77 µM (≈ 12.5 µg/mL)
- MIC exp (log (1/molarMIC)) [3]: 4.45

SMILES: c1ccc(-c2cc(-c3ccccc3)c3ccccc3n2)cc1 [Compound 33]
- MIC [3]: 11.11 µM (≈ 3.13 µg/mL)
- MIC exp (log (1/molarMIC)) [3]: 4.95

SMILES: c1ccc(-c2cc(Cc3ccco3)nc3ccccc23)cc1 [Compound 34]
- MIC [3]: 21.75 µM (≈ 6.21 µg/mL)
- MIC exp (log (1/molarMIC)) [3]: 4.66

SMILES: COc1ccc(NC(=O)c2c(C)nc3ccccc3c2-c2ccccc2)cc1 [Compound 35]
- MIC [3]: 8.48 µM (≈ 3.12 µg/mL)
- MIC exp (log (1/molarMIC)) [3]: 5.07

SMILES: Cc1nc2ccccc2c(-c2ccccc2)c1C(=O)Nc1ccc(F)cc1 [Compound 36]
- MIC [3]: 16.76 µM (≈ 5.97 µg/mL)
- MIC exp (log (1/molarMIC)) [3]: 4.78

SMILES: Cc1nc2ccccc2c(-c2ccccc2)c1C(=O)Nc1ccc(Cl)cc1 [Compound 37]
- MIC [3]: 17.54 µM (≈ 6.54 µg/mL)
- MIC exp (log (1/molarMIC)) [3]: 4.76

SMILES: Cc1nc2ccccc2c(-c2ccccc2)c1C(=O)Nc1ccc(Br)cc1 [Compound 38]
- MIC [3]: 30.92 µM (≈ 12.9 µg/mL)
- MIC exp (log (1/molarMIC)) [3]: 4.51

SMILES: Cc1nc2ccccc2c(-c2ccccc2)c1C(=O)Nc1ccccc1Cl [Compound 39]
- MIC [3]: 33.53 µM and 18.42 µM
- MIC exp (log (1/molarMIC)) [3]: 4.47 and 4.73

SMILES: Cc1nc2ccccc2c(-c2ccccc2)c1C(=O)NCc1ccccc1Cl [Compound 43]
- MIC [3]: 64.42 µM (≈ 24.9 µg/mL)
- MIC exp (log (1/molarMIC)) [3]: 4.19

SMILES: Cc1nc2ccccc2c(-c2ccccc2)c1C(=O)NCc1ccc(C(C)(C)C)cc1 [Compound 44]
- MIC [3]: 33.75 µM (≈ 13.8 µg/mL)
- MIC exp (log (1/molarMIC)) [3]: 4.47

SMILES: NNC(=O)c1ccncc1 [Isoniazid, reference compound]
- MIC (M. tuberculosis H37Rv): 0.36 µM (≈ 0.0494 µg/mL)
- MIC (M. bovis BCG): 0.36 µM (≈ 0.0494 µg/mL)
